# Results: patent US10370379B2, “Compounds and compositions useful for treating disorders related to NTRK” (BLUEPRINT MEDICINES CORPORATION, priority 2015, dated 2019)
# pIC50: −log10 of the molar value. Like-named read-outs stand apart in the source and are kept apart here.
# Tests used:
# [1] = tested on: KM12 wild type colon carcinoma cell line harboring the TPM3-NTRK1 fusion protein; assay: NTRK wild type cellular assay (KM12, CellTiter-Glo); assay type: cell-based; conditions: for pIC50: KM12 wild type cells, 72 hr, CellTiter-Glo; for GI50: NTRK wt cellular, known NTRK inhibitors
# Method: (§1) NTRK Wild Type and G595R Mutant Cellular Assays Protocol
# (§2) KM12 wild type colon carcinoma cell line harboring the TPM3-NTRK1 fusion protein was obtained from the National Cancer Institute (NCI). This line has been previously shown to be dependent upon the NTRK activity derived from the NTRK fusion protein for growth and survival. […] Cells were first plated in 384-well plates at 1000 cells/well in complete media (10% FBS and 1% pen/strep) and incubated overnight at 37° C. Cells were then dosed with test articles at varying concentrations using the Bravo liquid handling system. […] Each compound was run in duplicate per plate. […] 72 hr after dosing, assay plates were developed using CellTiter-Glo (Promega) and resultant luminescence was read on the Envision plate reader. IC50 determinations were calculated using a 4-parameter curve fitting algorithm
# [2] = tested on: KM12 Cliff (G595R) cell line; assay: NTRK G595R mutant cellular assay (KM12 Cliff, CellTiter-Glo); assay type: cell-based; conditions: for pIC50: Homo sapiens, KM12 Cliff (G595R) cells, 72 hr, CellTiter-Glo
# Method: as §1, §2
# wild type NTRK1 enzyme = wild type NTRK1 enzyme (Homo sapiens (Human), UniProt P04629); assay: NTRK1 Wild Type Assay at 1 mM ATP; assay type: biochemical
# Method: NTRK1 Wild Type Assay at 1 mM ATP
# The reaction was stopped by the addition of 70 μL of Stop buffer (100 mM HEPES pH 7.5, 0.015% Brij 35, 35 mM EDTA and 0.2% of Coating Reagent 3 (Caliper Lifesciences)). The plate was then read on a Caliper EZReader 2 (protocol settings: −1.7 psi, upstream voltage −500, downstream voltage −3000, post sample sip 35 s).
# [3] = wild type NTRK1, 1 mM ATP, read-out: NTRK1 IC50
# wild type NTRK1 enzyme, sequence (P04629 33-796): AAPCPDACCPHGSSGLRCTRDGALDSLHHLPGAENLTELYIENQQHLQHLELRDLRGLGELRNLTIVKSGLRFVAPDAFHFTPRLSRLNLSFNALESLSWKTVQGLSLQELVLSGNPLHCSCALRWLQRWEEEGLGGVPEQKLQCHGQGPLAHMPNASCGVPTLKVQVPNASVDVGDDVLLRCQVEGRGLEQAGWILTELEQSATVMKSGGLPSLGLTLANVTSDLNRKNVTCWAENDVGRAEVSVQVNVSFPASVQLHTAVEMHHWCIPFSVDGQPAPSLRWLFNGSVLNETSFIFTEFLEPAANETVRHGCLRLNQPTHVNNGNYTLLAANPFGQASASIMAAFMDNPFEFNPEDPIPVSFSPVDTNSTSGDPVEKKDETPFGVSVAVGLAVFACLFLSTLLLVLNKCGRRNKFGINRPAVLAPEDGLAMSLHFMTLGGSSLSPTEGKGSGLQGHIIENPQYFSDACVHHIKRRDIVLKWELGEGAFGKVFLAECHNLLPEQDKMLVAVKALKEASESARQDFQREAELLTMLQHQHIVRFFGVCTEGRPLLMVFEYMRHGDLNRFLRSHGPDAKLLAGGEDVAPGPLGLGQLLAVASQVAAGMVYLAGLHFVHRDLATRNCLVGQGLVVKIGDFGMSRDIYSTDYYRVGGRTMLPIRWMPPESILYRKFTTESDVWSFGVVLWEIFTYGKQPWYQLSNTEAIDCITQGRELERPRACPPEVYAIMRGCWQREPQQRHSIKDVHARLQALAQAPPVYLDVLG
pIC50 ([1]; Homo sapiens),pIC50 (wild type NTRK1 enzyme; [3]),"GI50 ([1]; Homo sapiens, KM12) [nM]",SMILES,pIC50 [2],GI50 [1] [nM],"GI50 ([2]; NTRK G595R cellular, known NTRK inhibitors) [µM]","pIC50 (wild type NTRK1 enzyme; NTRK wt, known NTRK inhibitors, read-out: NTRK wt Enzyme Assay IC50)"
> 8.00,> 8.00,–,N#Cc1cnn2ccc(N3C[C@@H](F)C[C@@H]3c3cc(F)cnc3Cl)nc12 [Compound 10],> 8.00,–,–,–
> 8.00,> 8.00,–,"N#Cc1cc(F)cc([C@H]2C[C@H](F)CN2c2ccn3ncc(C#N)c3n2)c1 [Compound 6, 5-((2R,4S)-2-(3-cyano-5-fluorophenyl)-4-fluoropyrrolidin-1-yl)pyrazolo[1,5-a]pyrimidine-3-carbonitrile]",> 8.00,–,–,–
–,–,87,"C[C@@H](Oc1cc(-c2cnn(C3CCNCC3)c2)cnc1N)c1c(Cl)ccc(F)c1Cl [Crizotinib, reference compound]",–,–,–,–
7.00 to 8.00,7.00 to 8.00,–,"CNC(=O)c1cc(F)cc([C@H]2C[C@H](F)CN2c2ccn3ncc(C#N)c3n2)c1 [Compound 20, 3-((2R,4S)-1-(3-cyanopyrazolo[1,5-a]pyrimidin-5-yl)-4-fluoropyrrolidin-2-yl)-5-fluoro-N-methylbenzamide]",7.00 to 8.00,–,–,–
7.00 to 8.00,> 8.00,–,N#Cc1cnn2ccc(N3C[C@@H](F)C[C@@H]3c3cc(F)cc(S(N)(=O)=O)c3)nc12 [Compound 16],7.00 to 8.00,–,–,–
7.00 to 8.00,7.00 to 8.00,–,"N#Cc1cnn2ccc(N3C[C@@H](C#N)C[C@@H]3c3cc(F)ccc3F)nc12 [Compound 5, 5-((2R,4S)-4-cyano-2-(2,5-difluorophenyl)pyrrolidin-1-yl)pyrazolo[1,5-a]pyrimidine-3-carbonitrile]",6.00 to 7.00,–,–,–
7.00 to 8.00,> 8.00,–,N#Cc1cnn2ccc(N3C[C@@H](F)C[C@@H]3c3cc(F)cc(C(=O)NCC4CC4)c3)nc12 [Compound 19],7.00 to 8.00,–,–,–
7.00 to 8.00,7.00 to 8.00,–,N#Cc1cnn2ccc(N3C[C@@H](F)C[C@@H]3c3cc(F)cc(C(=O)NCCO)c3)nc12 [Compound 18],7.00 to 8.00,–,–,–
> 8.00,> 8.00,–,N#Cc1cnn2ccc(N3C[C@@H](F)C[C@@H]3c3cc(F)cc(Cl)c3)nc12 [Compound 9],> 8.00,–,–,–
7.00 to 8.00,> 8.00,–,N#Cc1cnn2cc(F)c(N3C[C@@H](F)C[C@@H]3c3cc(F)cc(C(N)=O)c3)nc12 [Compound 15],7.00 to 8.00,–,–,–
7.00 to 8.00,7.00 to 8.00,–,"N#Cc1cnn2ccc(N3C[C@@H](F)C[C@@H]3c3cc(F)ccc3C(N)=O)nc12 [Compound 22, 2-((2R,4S)-1-(3-cyanopyrazolo[1,5-a]pyrimidin-5-yl)-4-fluoropyrrolidin-2-yl)-4-fluorobenzamide]",6.00 to 7.00,–,–,–
7.00 to 8.00,7.00 to 8.00,–,"N#Cc1cnn2ccc(N3CC(F)(F)C[C@@H]3c3cncc(F)c3)nc12 [Compound 3, (R)-5-(4,4-difluoro-2-(5-fluoropyridin-3-yl)pyrrolidin-1-yl)pyrazolo[1,5-a]pyrimidine-3-carbonitrile]",6.00 to 7.00,–,–,–
> 8.00,> 8.00,–,N#Cc1cnn2ccc(N3C[C@@H](F)C[C@@H]3c3cc(F)ccc3OC(F)(F)F)nc12 [Compound 17],> 8.00,–,–,–

# Further lines, the compound ahead of its results:
SMILES,pIC50 ([1]; Homo sapiens),pIC50 (wild type NTRK1 enzyme; [3]),"GI50 ([1]; Homo sapiens, KM12) [nM]",pIC50 [2],GI50 [1] [nM],"GI50 ([2]; NTRK G595R cellular, known NTRK inhibitors) [µM]","pIC50 (wild type NTRK1 enzyme; NTRK wt, known NTRK inhibitors, read-out: NTRK wt Enzyme Assay IC50)"
"N#Cc1cnn2ccc(N3C[C@@H](F)C[C@@H]3c3cncc(F)c3)nc12 [Compound 1, 5-((2R,4S)-4-fluoro-2-(5-fluoropyridin-3-yl)pyrrolidin-1-yl)pyrazolo[1,5-a]pyrimidine-3-carbonitrile]",> 8.00,> 8.00,–,7.00 to 8.00,–,–,–
N#Cc1cnn2ccc(N3C[C@@H](F)C[C@@H]3c3cc(F)ccc3F)nc12 [Compound 2],> 8.00,> 8.00,–,> 8.00,–,–,–
N#Cc1cnn2ccc(N3C[C@@H](F)C[C@@H]3c3cc(F)cc(C(N)=O)c3)nc12 [Compound 11],> 8.00,> 8.00,–,7.00 to 8.00,–,–,–
N#Cc1cc(F)cc([C@H]2C[C@H](F)CN2c2nc3c(C#N)cnn3cc2F)c1 [Compound 12],> 8.00,> 8.00,–,> 8.00,–,–,–
"N#Cc1cnn2cc(F)c(N3C[C@@H](F)C[C@@H]3c3cncc(F)c3)nc12 [Compound 4, 6-fluoro-5-((2R,4S)-4-fluoro-2-(5-fluoropyridin-3-yl)pyrrolidin-1-yl)pyrazolo[1,5-a]pyrimidine-3-carbonitrile]",> 8.00,> 8.00,–,> 8.00,–,–,–
COc1c(F)cc(F)cc1[C@H]1C[C@H](F)CN1c1ccn2ncc(C#N)c2n1 [Compound 13],> 8.00,> 8.00,–,> 8.00,–,–,–
"CC(C)NC(=O)[C@H]1CC[C@@H](n2c(NC(=O)c3ccc(F)cc3)nc3ccc(CN4CCC(C(C)(C)O)CC4)cc32)CC1 [TSR-011, reference compound]",–,–,–,–,32,12,8.64
CN(C)C(=O)c1cc(F)cc([C@H]2C[C@H](F)CN2c2ccn3ncc(C#N)c3n2)c1 [Compound 21],7.00 to 8.00,7.00 to 8.00,–,6.00 to 7.00,–,–,–
"COc1ncc(F)cc1[C@H]1C[C@H](F)CN1c1ccn2ncc(C#N)c2n1 [Compound 7, 5-((2R,4S)-4-fluoro-2-(5-fluoro-2-methoxypyridin-3-yl)pyrrolidin-1-yl)pyrazolo[1,5-a]pyrimidine-3-carbonitrile]",> 8.00,> 8.00,–,> 8.00,–,–,–
"Cn1cc(F)cc([C@H]2C[C@H](F)CN2c2ccn3ncc(C#N)c3n2)c1=O [Compound 8, 5-((2R,4S)-4-fluoro-2-(5-fluoro-1-methyl-2-oxo-1,2-dihydropyridin-3-yl)pyrrolidin-1-yl)pyrazolo[1,5-a]pyrimidine-3-carbonitrile]",7.00 to 8.00,7.00 to 8.00,–,6.00 to 7.00,–,–,–
"CC(C)(O)c1cc(F)cc([C@H]2C[C@H](F)CN2c2ccn3ncc(C#N)c3n2)c1 [Compound 14, 5-((2R,4S)-4-fluoro-2-(3-fluoro-5-(2-hydroxypropan-2-yl)phenyl)pyrrolidin-1-yl)pyrazolo[1,5-a]pyrimidine-3-carbonitrile]",7.00 to 8.00,7.00 to 8.00,–,6.00 to 7.00,–,–,–
